The NIST ThermoML archive (doi:10.1016/j.tca.2015.02.001)
± gives the expanded uncertainty stated by the source.

Legend:
[1] = Molar enthalpy of transition or fusion; conditions: Crystal; DSC
[2] = Crystal; DTA

Compound: CCn1cc[n+](C)c1.[Br-] [1-ethyl-3-methylimidazolium bromide]
- Molar enthalpy of transition or fusion [1]: 19.3 ± 1.5 kJ/mol
- Triple point temperature [2]: 340.15 ± 2 K

Compound: CCn1cc[n+](C)c1.[Cl-] [1-ethyl-3-methylimidazolium chloride]
- Molar enthalpy of transition or fusion [1]: 14.2 ± 1.4 kJ/mol
- Triple point temperature [2]: 359.15 ± 2 K

Compound: CCn1cc[n+](C)c1.[I-] [1-ethyl-3-methylimidazolium iodide]
- Molar enthalpy of transition or fusion [1]: 16.9 ± 1.3 kJ/mol
- Triple point temperature [2]: 347.15 ± 2 K
